{
  "source": "paper PMC10671360",
  "about": "“In Silico and In Vitro Study towards the Rational Design of 4,4′-Disarylbisthiazoles as a Selective α-Synucleinopathy Biomarker” (International Journal of Molecular Sciences, 2023)",
  "key": {"[1]": {"molecular_target": "α-syn (Homo sapiens, UniProt P37840)", "parameters": "method as in PMID 12657667, PMID 32098280, PMID 18221373", "details": "[^3H]PiB; cited from earlier work"}, "[2]": {"molecular_target": "tau (Homo sapiens, UniProt P10636)", "sequence (P10636 2-758)": "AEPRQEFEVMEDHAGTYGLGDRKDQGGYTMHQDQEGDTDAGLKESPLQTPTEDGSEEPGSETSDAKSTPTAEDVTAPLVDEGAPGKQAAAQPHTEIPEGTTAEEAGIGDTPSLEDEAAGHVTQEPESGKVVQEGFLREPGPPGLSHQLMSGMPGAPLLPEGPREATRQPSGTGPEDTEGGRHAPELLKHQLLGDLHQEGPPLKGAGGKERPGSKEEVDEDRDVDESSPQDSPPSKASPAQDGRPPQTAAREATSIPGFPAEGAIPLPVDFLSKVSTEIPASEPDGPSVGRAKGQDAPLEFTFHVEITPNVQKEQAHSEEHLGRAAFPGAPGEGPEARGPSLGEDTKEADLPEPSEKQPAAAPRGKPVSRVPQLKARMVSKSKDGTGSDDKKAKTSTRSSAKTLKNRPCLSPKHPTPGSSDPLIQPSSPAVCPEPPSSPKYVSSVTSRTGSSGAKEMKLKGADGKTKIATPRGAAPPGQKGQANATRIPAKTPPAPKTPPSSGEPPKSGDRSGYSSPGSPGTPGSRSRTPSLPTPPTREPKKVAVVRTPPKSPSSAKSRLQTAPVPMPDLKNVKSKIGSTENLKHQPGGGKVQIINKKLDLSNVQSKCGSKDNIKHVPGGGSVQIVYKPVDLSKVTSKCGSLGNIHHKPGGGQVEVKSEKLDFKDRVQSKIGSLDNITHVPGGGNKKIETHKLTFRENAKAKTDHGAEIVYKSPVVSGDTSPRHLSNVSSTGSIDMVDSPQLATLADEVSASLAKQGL", "parameters": "method as in PMID 12657667, PMID 32098280, PMID 18221373", "details": "[^3H]PiB; cited from earlier work"}, "[3]": {"molecular_target": "T1, recombinant α-syn fibrils (Homo sapiens, UniProt P37840)", "T1 construct": "made in house", "test": "Competition binding assay against [^3H]DCVJ, α-syn fibrils", "details": "for Selectivity Aβ/α-syn / Selectivity tau/α-syn: ratio of Ki, [^3H]DCVJ was used; for Ki: [^3H]DCVJ was used (10 nM), α-synuclein aggregates 125 nM", "protocol": "The incubation of purified recombinant α-synuclein monomer (10 mg/mL) obtained as described by Uzuegbunam was carried out in PBS (pH 7.4) at 37 °C. The solution was left shaking at 900 rpm in an Eppendorf Thermomixer for up to 84 h. Determination of the concentration of the formed fibrils (α-syn) was carried out following the centrifugation of the reaction vial at 12,000× g for 5 min. The pellet obtained was washed thrice with 20 mM of Tris-HCl, pH 7.4. The supernatants from the three centrifugation steps were combined, and the concentration of the monomer in the resulting supernatant was determined in a BCA assay (Thermo Fisher Scientific, Waltham, MA, USA) (with a BSA standard curve). Determination of the concentration of α-syn was carried out by subtracting the amount of α-synuclein monomer in the supernatant from the initial amount used for fibrillation.\n(§1) The pellets of the fibrils obtained above (Section 4.2.1) were resuspended in 20 mM of Tris-HCl, pH 7.4 and diluted as needed for the binding assays.\n(§2) A fixed concentration of [^3H]DCVJ (10 nM) and α-synuclein aggregates (125 nM), prepared as described above (Section 4.2.3), was used with different final concentrations of the DABTAs from 0.01 to 100 nM (see SI Figure S1). The experiment was carried out in quintuplicate for each concentration. The mixture was incubated for 2 h in a final volume of 200 μL per well after dilution with 20 mM of Tris-HCl, pH 7.4. The incubated mixtures were filtered through a Perkin Elmer GF/B glass filter via a TOMTEC cell harvester and immediately washed thrice with 1 mL of deionized water. The filters containing the bound ligands were dried and afterwards mixed with 3 mL of BetaPlate Scint solution (Perkin Elmer Life Sciences, Waltham, MA, USA) and left there for 2 h before counting in a Wallac 1450 MicroBeta TriLux Liquid Scintillation Counter (PerkinElmer Life Sciences, Waltham, MA, USA). For the determination of the inhibition constants, data were analyzed using GraphPad Prism software (version 7.0) to obtain IC50 values by fitting the data to the equation Y = bottom + (top − bottom)/(1 + 10(x − log IC50)). Ki values were calculated from IC50 values using the equation Ki = IC50/(1 + [radioligand]/Kd). […] Further protocol was carried out as for [^3H]DCVJ (see SI Figure S3)."}, "[4]": {"molecular_target": "T2, Aβ1−42 fibrils (Homo sapiens, UniProt P05067)", "T2 construct": "1 mg of β-amyloid1–42 peptide (Abcam, Cambridge, UK); purchased Abcam", "T2 sequence (P05067 672-713)": "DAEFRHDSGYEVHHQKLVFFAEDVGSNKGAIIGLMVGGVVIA", "test": "Competition binding assay against [^3H]PiB, Aβ1−42 fibrils", "details": "read-out: Ki Aβ", "protocol": "After the dissolution of 1 mg of β-amyloid1–42 peptide (Abcam, Cambridge, UK) in 50 μL of DMSO, 925 μL of Milli-Q® water was added to it, and the mixture was stirred. Finally, 25 μL of 1M Tris HCl, pH 7.4 was added to bring the final peptide concentration to 1 mg/mL. The mixture was then left to incubate at 37 °C for 30 h with shaking at 900 rpm. To separate the non-aggregated monomers from the formed fibrils, the reaction mixture was centrifuged at 12,000× g for 5 min, and the resulting pellet was washed three times with 500 μL of 20 mM Tris-HCl, pH 7.4. The supernatants from the three centrifugation steps were combined, and the concentration of the monomer in the resulting supernatant was determined in a BCA assay (Thermo Fisher Scientific, Waltham, MA, USA) (with a BSA standard curve). Determination of the concentration of fibrils formed was carried out by subtracting the amount of β-amyloid1−42 peptide monomer in the supernatant from the initial amount used for fibrillation.\nas §1, §2\nFurther procedures followed the same already described in Section 4.2.3.1 (See SI Figure S4)."}, "[5]": {"molecular_target": "tau fibrils (Homo sapiens, UniProt P10636)", "sequence (P10636 2-758)": "as the sequence (P10636 2-758) above", "test": "Competition binding assay against [^3H]PiB, tau fibrils", "protocol": "as §2, with “Recombinant tau monomer (R&D systems, Minneapolis, MN, USA) was dissolved in 20 mM of Tris HCl, pH 8.0, 100 mM of NaCl, 25 μM of low-MW heparin, and 0.5 mM of dithiothreitol to a final concentration of 300 µg/mL. The mixture was incubated with shaking at 900 rpm at 37 °C for 48 h. To separate the non-aggregated monomers from the formed fibrils, the reaction mixture was centrifuged at 12,000× g for 5 min, and the resulting pellet was washed three times with 500 μL of 20 mM Tris-HCl, pH 7.4. The supernatants from the three centrifugation steps were combined, and the concentration of the monomer in the resulting supernatant was determined in a BCA assay(Thermo Fisher Scientific, Waltham, MA, USA) (with a BSA standard curve). Determination of the concentration of fibrils formed was carried out by subtracting the amount of tau peptide monomer in the supernatant from the initial amount used for fibrillation. The pellets of the fibrils obtained above (Section 4.2.1) were resuspended in 20 mM of Tris-HCl, pH 7.4 and diluted as needed for the binding assays. A fixed” for “A fixed”, “Figure S3). […] Further procedures followed the same already described in Section 4.2.3.1 (See SI Figure S4).” for “Figure S3).”"}, "[6]": {"molecular_target": "T1, recombinant α-syn fibrils", "test": "Competition binding assay against [^3H]PiB, α-syn fibrils", "details": "for Selectivity Aβ/α-syn / Selectivity tau/α-syn: ratio of Ki, [^3H]PiB was used"}, "[7]": {"parameters": "method as in PMID 35572127", "details": "cited from earlier work"}, "[8]": {"test": "Solubility in the incubation medium of the binding assays", "type": "physicochemical", "details": "incubation buffer of the binding assays"}},
  "note": "Entries after “also recorded” stand apart in the source; their conditions may differ.",
  "data": [
    {"compound": "[3H]C([3H])([3H])Nc1ccc(-c2nc3ccc(O)cc3s2)cc1", "note": "[[^3H]PiB]", "values": [
      {"measurement": "Kd", "setting": "[1]", "result": 4.9, "unit": "nM"},
      {"measurement": "Kd", "setting": "[2]", "result": 117, "unit": "nM"}
    ]},
    {"compound": "Fc1ccc(-c2csc(-c3nc(-c4ccc5c(c4)OCO5)cs3)n2)cn1", "note": "[d6, 4-(Benzo[d][1,3]dioxol-5-yl)-4′-(6-fluoropyridin-3-yl)-2,2′-bithiazole]", "values": [
      {"measurement": "Selectivity Aβ/α-syn", "setting": "[3]", "result": 196.0},
      {"measurement": "Selectivity tau/α-syn", "setting": "[3]", "result": 798.3},
      {"measurement": "Ki", "setting": "[4]", "result": 151, "unit": "nM"},
      {"measurement": "Ki", "setting": "[5]", "result": 799, "unit": "nM"},
      {"measurement": "Ki", "setting": "[6]", "result": 2.51, "unit": "nM"},
      {"measurement": "Selectivity Aβ/α-syn", "setting": "[6]", "result": 60.1},
      {"measurement": "Selectivity tau/α-syn", "setting": "[6]", "result": 318.2},
      {"measurement": "brain uptake and washout", "setting": "[7]", "result": "excellent brain uptake and washout"}
    ]},
    {"compound": "Fc1ccc(-c2csc(-c3nc(-c4cnc5c(c4)OCO5)cs3)n2)cn1", "note": "[d8, 6-(4′-(6-Fluoropyridin-3-yl)-[2,2′-bithiazol]-4-yl)-[1,3]dioxolo[4,5-b]pyridine]", "values": [
      {"measurement": "Selectivity Aβ/α-syn", "setting": "[3]", "result": 3863.0},
      {"measurement": "Selectivity tau/α-syn", "setting": "[3]", "result": ">10,000.0"},
      {"measurement": "Ki", "setting": "[4]", "result": 127, "unit": "nM"},
      {"measurement": "Ki", "setting": "[6]", "result": 1.01, "unit": "nM"},
      {"measurement": "Selectivity Aβ/α-syn", "setting": "[6]", "result": 125.8},
      {"measurement": "Selectivity tau/α-syn", "setting": "[6]", "result": ">990.1"},
      {"measurement": "brain uptake and washout", "setting": "[7]", "result": "excellent brain uptake and washout"}
    ]},
    {"compound": "FCCOCCOCCOc1cnc(-c2csc(-c3nc(-c4ccc5c(c4)OCO5)cs3)n2)nc1", "note": "[f7, 4-(Benzo[d][1,3]dioxol-5-yl)-4′-(5-(2-(2-(2-fluoroethoxy)ethoxy)ethoxy)pyrimidin-2-yl)-2,2′-bithiazole]", "values": [
      {"measurement": "Ki", "setting": "[3]", "result": 1.51, "unit": "nM"},
      {"measurement": "Ki", "setting": "[4]", "result": 76.4, "unit": "nM"},
      {"measurement": "Ki", "setting": "[5]", "result": 242, "unit": "nM"},
      {"measurement": "Ki", "setting": "[6]", "result": 1.17, "unit": "nM"},
      {"measurement": "Selectivity Aβ/α-syn", "setting": "[6]", "result": 65.3},
      {"measurement": "Selectivity tau/α-syn", "setting": "[6]", "result": 206.9}
    ]},
    {"compound": "FCCOCCOc1cnc(-c2csc(-c3nc(-c4cnc5c(c4)OCO5)cs3)n2)nc1", "note": "[f8, 6-(4′-(5-(2-(2-Fluoroethoxy)ethoxy)pyrimidin-2-yl)-[2,2′-bithiazol]-4-yl)-[1,3]dioxolo[4,5-b]pyridine]", "values": [
      {"measurement": "solubility in the incubation medium", "setting": "[8]", "result": "low solubility; also recorded: decreased solubility"},
      {"measurement": "Ki", "setting": "[6]", "result": 2.3, "unit": "nM"}
    ]},
    {"compound": "COc1ccc(-c2csc(-c3nc(-c4cnc5c(c4)OCO5)cs3)n2)cc1OCCOCCF", "note": "[f9, 6-(4′-(3-(2-(2-Fluoroethoxy)ethoxy)-4-methoxyphenyl)-[2,2′-bithiazol]-4-yl)-[1,3]dioxolo [4,5-b]pyridine]", "values": [
      {"measurement": "Ki", "setting": "[3]", "result": 0.84, "unit": "nM"},
      {"measurement": "Ki", "setting": "[4]", "result": 47.6, "unit": "nM"},
      {"measurement": "Ki", "setting": "[5]", "result": 1130, "unit": "nM"},
      {"measurement": "Ki", "setting": "[6]", "result": 0.96, "unit": "nM"},
      {"measurement": "Selectivity Aβ/α-syn", "setting": "[6]", "result": 49.6},
      {"measurement": "Selectivity tau/α-syn", "setting": "[6]", "result": 1177.1}
    ]},
    {"compound": "FCCOCCOCCOc1ccc(-c2csc(-c3nc(-c4cnc5c(c4)OCO5)cs3)n2)cc1F", "note": "[f10, 6-(4′-(3-Fluoro-4-(2-(2-(2-fluoroethoxy)ethoxy)ethoxy)phenyl)-[2,2′-bithiazol]-4-yl)-[1,3]dioxolo[4,5-b]pyridine]", "values": [
      {"measurement": "Ki", "setting": "[3]", "result": 1, "unit": "nM"},
      {"measurement": "Ki", "setting": "[4]", "result": 37.3, "unit": "nM"},
      {"measurement": "Ki", "setting": "[5]", "result": 615, "unit": "nM"},
      {"measurement": "Ki", "setting": "[6]", "result": 0.93, "unit": "nM"},
      {"measurement": "Selectivity Aβ/α-syn", "setting": "[6]", "result": 40.1}
    ]},
    {"compound": "COc1ccc(-c2csc(-c3nc(-c4cnc5c(c4)OCO5)cs3)n2)cc1OC", "note": "[f18, 6-(4′-(3,4-Dimethoxyphenyl)-[2,2′-bithiazol]-4-yl)-[1,3]dioxolo[4,5-b]pyridine]", "values": [
      {"measurement": "solubility in the incubation medium", "setting": "[8]", "result": "low solubility; also recorded: decreased solubility"},
      {"measurement": "Ki", "setting": "[6]", "result": 4.99, "unit": "nM"}
    ]},
    {"compound": "ICCOCCOCCOc1cnc(-c2csc(-c3nc(-c4cnc5c(c4)OCO5)cs3)n2)nc1", "note": "[h13, 6-(4′-(5-(2-(2-(2-Iodoethoxy)ethoxy)ethoxy)pyrimidin-2-yl)-[2,2′-bithiazol]-4-yl)-[1,3]dioxolo[4,5-b]pyridine]", "values": [
      {"measurement": "solubility in the incubation medium", "setting": "[8]", "result": "low solubility; also recorded: decreased solubility"},
      {"measurement": "Ki", "setting": "[6]", "result": 1.17, "unit": "nM"}
    ]}
  ]
}
